Laboratory results published in ChEMBL document CHEMBL4256943, “Inhibitors of cyp17a1” (2016).

Species: Homo sapiens
Assay: Selectivity factor, ratio of IC50 for human membrane bound C-terminal His4-tagged CYP21A2delta19H mutant to IC50 for human membrane bound C-terminal His4-tagged CYP17A1delta19H mutant

SMILES: C[C@]12CC[C@H](O)C[C@@H]1/C(=N/O)C[C@@H]1[C@@H]2CC[C@]2(C)C(c3cccnc3)=CC[C@@H]12
- Ratio IC50: 68.9
